Experimental findings from ChEMBL document CHEMBL1152728, “1-Amido-1-phenyl-3-piperidinylbutanes - CCR5 antagonists for the treatment of HIV. Part 1” (Bioorg Med Chem Lett, 2009) are described below.

Data set [1] has as its system Liver microsomes. Kind of data set: Metabolic stability in human liver microsomes assessed as clearance measured per mg of protein. Type of data set: ADME, Microsome. (In general: Liver microsomes are vesicles of endoplasmic reticulum, rich in cytochrome P450 enzymes.)
Data set [2] deals with Voltage-gated inwardly rectifying potassium channel KCNH2 (Homo sapiens, UniProt Q12809).
Description: Displacement of [3H]dofetilide from human ERG expressed in HEK293 cells
The nature of data set [3]: physchem. Particulars: buffer, pH 7.4.
Data set [4] concerns Human immunodeficiency virus 1. Kind of data set: microbe, parasite or virus in culture. Particulars: Human immunodeficiency virus 1, Bal, PM1.
Data set [5] is described as follows: physchem.
Description: Dissociation constant, pKa of the compound
In data set [6] the target is hERG (KCNH2) (Homo sapiens, UniProt Q12809). The data set can be described thus: in vitro. Conditions: HEK293 cells that express human ERG, probe [3H]dofetilide.
Description: Displacement of [3H]dofetilide from human ERG expressed in HEK293 cells at 300 nM
Data set [7] relates to Human immunodeficiency virus 1. Particulars: Bal, PM1.

Calls of active or inactive are those of the source. The calls are words filed in the database; no cut-off is given here.

Voltage-gated inwardly rectifying potassium channel KCNH2, sequence (Q12809 whole entry): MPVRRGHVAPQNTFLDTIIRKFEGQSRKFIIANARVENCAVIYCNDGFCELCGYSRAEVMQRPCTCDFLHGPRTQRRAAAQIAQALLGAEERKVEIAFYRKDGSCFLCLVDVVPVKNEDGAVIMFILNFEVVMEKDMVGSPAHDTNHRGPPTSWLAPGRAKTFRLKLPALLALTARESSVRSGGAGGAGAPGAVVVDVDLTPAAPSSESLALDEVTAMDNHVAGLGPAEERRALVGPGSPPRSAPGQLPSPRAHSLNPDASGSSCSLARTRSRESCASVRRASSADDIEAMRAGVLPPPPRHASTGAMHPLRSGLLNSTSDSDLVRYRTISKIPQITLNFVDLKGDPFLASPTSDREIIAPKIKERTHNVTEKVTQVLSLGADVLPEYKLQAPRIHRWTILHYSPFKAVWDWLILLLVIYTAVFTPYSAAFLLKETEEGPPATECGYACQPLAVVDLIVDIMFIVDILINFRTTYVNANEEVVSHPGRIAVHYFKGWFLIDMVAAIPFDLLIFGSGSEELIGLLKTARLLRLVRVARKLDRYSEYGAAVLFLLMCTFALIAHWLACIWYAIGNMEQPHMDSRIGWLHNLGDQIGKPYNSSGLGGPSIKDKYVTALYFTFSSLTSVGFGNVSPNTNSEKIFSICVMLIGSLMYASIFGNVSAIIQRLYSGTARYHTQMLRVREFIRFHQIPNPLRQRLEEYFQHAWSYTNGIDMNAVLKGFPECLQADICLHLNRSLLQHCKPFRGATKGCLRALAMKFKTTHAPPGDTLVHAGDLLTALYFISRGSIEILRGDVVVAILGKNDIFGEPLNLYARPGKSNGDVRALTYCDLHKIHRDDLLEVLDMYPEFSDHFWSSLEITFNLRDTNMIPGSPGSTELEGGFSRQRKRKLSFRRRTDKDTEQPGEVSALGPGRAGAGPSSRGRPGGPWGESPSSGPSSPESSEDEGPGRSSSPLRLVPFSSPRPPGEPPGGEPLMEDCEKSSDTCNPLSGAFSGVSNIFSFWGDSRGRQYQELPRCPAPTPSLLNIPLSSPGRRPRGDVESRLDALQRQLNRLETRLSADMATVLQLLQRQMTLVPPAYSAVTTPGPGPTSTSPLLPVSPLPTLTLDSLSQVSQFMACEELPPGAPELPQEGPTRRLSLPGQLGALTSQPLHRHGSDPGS
hERG (KCNH2), sequence (Q12809 whole entry): as above

The term IC50 denotes the concentration needed to halve the response being measured. Usually logD stands for the decadic logarithm of the distribution of all forms, ionised or not, between an organic phase and buffer at a given pH. A low value points to a more hydrophilic compound. As for `CC(C[C@H](NC(=O)C1CCC1)c1ccccc1)N1CCC(n2cc(-c3ccccc3)[nH]c2=O)CC1` (some centres undefined), the Stability in data set [1] stood at 35 µL/min. The molecule further gave an IC50 in data set [2] of 4.7 nM. Besides, the logD in data set [3] stood at 3.5.
Take `Cc1nnc(C2CCN(C(C)C[C@H](NC(=O)C3CCC3)c3ccccc3)CC2)o1` (some centres undefined): the Stability in data set [1] is less than 7 µL/min. Further, the logD in data set [3] worked out at 1.3.
By IC90 is commonly meant the concentration needed for an effect of 90%. Higher therefore signals weaker potency. In data set [4], `CCN(C(=O)Oc1ccc(F)cc1)C1CCN(C(C)C[C@H](NC(=O)C2CCC2)c2ccccc2)CC1` (some centres undefined) had an IC90 of 61.4 nM.
Consider `CC(C[C@H](NC(=O)C1CCC1)c1ccccc1)N1CCC(c2nnc(CN(C)C)o2)CC1` (some centres undefined), for which the Stability in data set [1] was less than 7 µL/min. The logD in data set [3] was 1.1.
As usually defined, the pKa is the pH at which an ionisable group is half protonated. The low end stands for a group that gives up its proton readily, the high end for a group that holds its proton tightly. `CCN(C(=O)Cc1ccc(OC)cc1)[C@H]1C[C@H]2CC[C@@H](C1)N2CC[C@H](NC(=O)C1CCC1)c1ccccc1`: the Stability in data set [1] amounted to 183 µL/min. Further, the logD in data set [3] amounted to 2.9. Also, the pKa in data set [5] was 8.7.
For orientation: inhibition means the change of the read-out against control, counted positive when it falls. High values mean a strong effect, low ones a weak effect. As to `Cc1nnc(C(C)C)n1C1CCN(CC[C@H](NC(=O)C2CCC(F)(F)CC2)c2ccccc2)CC1`, the Stability in data set [1] was less than 8 µL/min. The molecule also yielded a logD in data set [3] of 1.7. Moreover, the pKa in data set [5] was 7.2. The inhibition at 0.3 µM in data set [6] amounted to 0%. For the same molecule, the result in data set [7] was inactive.
The molecule `CCN(C(=O)NCc1ccc(Cl)c(Cl)c1)C1CCN(C(C)C[C@H](NC(=O)C2CCC2)c2ccccc2)CC1` (some centres undefined) came in with an IC90 in data set [4] of 0.236 nM.
Molecule `CCN(C(=O)OCc1ccccc1)C1CCN(C(C)C[C@H](NC(=O)C2CCC2)c2ccccc2)CC1` (some centres undefined) had an IC90 in data set [4] of 0.322 nM.
Consider `Cc1nnc(C(C)C)n1[C@H]1C[C@H]2CC[C@@H](C1)N2CC[C@H](NC(=O)C1CCC(F)(F)CC1)c1ccccc1` [MARAVIROC], for which the Stability in data set [1] turned out to be 22 µL/min. Besides, the logD in data set [3] was 2. This molecule gave a pKa in data set [5] of 7.7. In data set [4], this molecule returned an IC90 of 0.7 nM.
In the case of `Cc1noc(C2CCN(C(C)C[C@H](NC(=O)C3CCC3)c3ccccc3)CC2)n1` (some centres undefined), in data set [1], the Stability came out at 56 µL/min. Also, in data set [3], the logD was 2.1.
As to `CC(C)c1noc(C2CCN(C(C)C[C@H](NC(=O)C3CCC3)c3ccccc3)CC2)n1` (some centres undefined), in data set [1], the Stability stood at 204 µL/min. Besides, the logD in data set [3] was 3.2.
In the case of `CC(C[C@H](NC(=O)C1CCC1)c1ccccc1)N1CCC(c2[nH]ncc2-c2ccncc2)CC1` (some centres undefined), the Stability in data set [1] came to 38 µL/min. The molecule also yielded an IC50 in data set [2] of 117 nM. The molecule further gave a pH-dependent lipophilicity (logD) in data set [3] of 2.4.
As to `CCN(C(=O)c1ccc(F)cc1)C1CCN(C(C)C[C@H](NC(=O)C2CCC2)c2ccccc2)CC1` (some centres undefined), it took 1630 nM to reach the 90% level in data set [4] (IC90).
For `Cc1nnc(C(C)C)n1C1CCN(C(C)C[C@H](NC(=O)C2CCC2)c2ccccc2)CC1` (some centres undefined), the Stability in data set [1] is less than 7 µL/min. For the same molecule, the logD in data set [3] was 1.9.
Turning to `Cc1nnc(C)n1C1CCN(C(C)C[C@H](NC(=O)C2CCC2)c2ccccc2)CC1` (some centres undefined), the Stability in data set [1] is less than 7 µL/min. In addition, the logD in data set [3] worked out at 1.2.
